From US20170107179A1 (Tetraphase Pharmaceuticals, Inc., priority 2010, published 2017)
In brackets after ≈: the same amount, converted by molar mass. Like-named read-outs stand apart in the source and are kept apart here.

Experiments:
S. aureus Smith = experiment: Mouse systemic infection (septicemia) model, CD-1 mice; settings: Staphylococcus aureus, in Mus musculus, 48 h; for responders at 3 mg/kg: iv, read-out: Percent survival at 48 hours, IV (3 mg/kg); for responders at 30 mg/kg: po, read-out: Percent survival at 48 hours, PO (30 mg/kg)
[1] = tested on: Gram-negative and Gram-positive organisms (clinical isolates); experiment: Broth microdilution MIC against clinical isolates (CLSI M7-A8), Table 9; type: cell-based
[2] = Staphylococcus aureus, Staphylococcus aureus (MRSA PVL+), n=30, read-out: MIC50
[3] = Staphylococcus aureus, Staphylococcus aureus (MRSA PVL+), n=30, read-out: MIC90
[4] = Streptococcus intermedius, n=30
[5] = Klebsiella aerogenes, Enterobacter aerogenes, n=30
[6] = Klebsiella pneumoniae, Klebsiella pneumonia, n=27
[7] = Stenotrophomonas maltophilia, n=29

CN(C)[C@@H]1C(O)=C(C(N)=O)C(=O)[C@@]2(O)C(O)=C3C(=O)c4c(O)c5c(c(F)c4C[C@H]3C[C@@H]12)CN(C1CCC1)C5 [Compound 132]
responders at 3 mg/kg (S. aureus Smith): 50%
responders at 30 mg/kg (S. aureus Smith): 50%

CC(C)N1Cc2c(O)c3c(c(F)c2C1)C[C@H]1C[C@H]2[C@H](N(C)C)C(O)=C(C(N)=O)C(=O)[C@@]2(O)C(O)=C1C3=O [Compound 143]
responders at 3 mg/kg (S. aureus Smith): 83%
responders at 30 mg/kg (S. aureus Smith): 100%

CN(C)c1c2c(c(O)c3c1C[C@H]1C[C@H]4[C@H](N(C)C)C(O)=C(C(N)=O)C(=O)[C@@]4(O)C(O)=C1C3=O)CN(C(C)(C)C)C2 [Compound 115]
responders at 3 mg/kg (S. aureus Smith): 100%
responders at 30 mg/kg (S. aureus Smith): 100%

CC(C)N1Cc2c(O)c3c(c(N(C)C)c2C1)C[C@H]1C[C@H]2[C@H](N(C)C)C(O)=C(C(N)=O)C(=O)[C@@]2(O)C(O)=C1C3=O [Compound 135]
responders at 3 mg/kg (S. aureus Smith): 100%
responders at 30 mg/kg (S. aureus Smith): 100%

CN(C)[C@@H]1C(O)=C(C(N)=O)C(=O)[C@@]2(O)C(O)=C3C(=O)c4c(O)c5c(c(F)c4C[C@H]3C[C@@H]12)CN(C(=O)CN1CC[C@H](F)C1)C5 [Compound 147]
responders at 3 mg/kg (S. aureus Smith): 83%
responders at 30 mg/kg (S. aureus Smith): 0%

CCC[C@@H]1C[C@@H](C(=O)N[C@@H]([C@H]2O[C@H](SC)[C@H](O)[C@@H](O)[C@H]2O)[C@H](C)Cl)N(C)C1 [Clindamycin]
MIC50 [1]: 0.03 µg/mL (≈ 0.0706 µM)
MIC90 [1]: 0.06 µg/mL (≈ 0.141 µM)
MIC50 [1, 2]: 0.06 µg/mL (≈ 0.141 µM)
MIC90 [1, 3]: 0.12 µg/mL (≈ 0.282 µM)
MIC50 ([1]; Streptococcus anginosus, n=20): ≤ 0.015 µg/mL
MIC90 ([1]; Streptococcus anginosus, n=20): 0.03 µg/mL (≈ 0.0706 µM)
MIC50 [1, 4]: ≤ 0.015 µg/mL
MIC90 [1, 4]: 0.06 µg/mL (≈ 0.141 µM)
MIC50 ([1]; Streptococcus mitis, n=29): 0.03 µg/mL (≈ 0.0706 µM)
MIC90 ([1]; Streptococcus mitis, n=29): 0.06 µg/mL (≈ 0.141 µM)

CC[C@@H](C)N1Cc2c(O)c3c(c(F)c2C1)C[C@H]1C[C@H]2[C@H](N(C)C)C(O)=C(C(N)=O)C(=O)[C@@]2(O)C(O)=C1C3=O [Compound 130]
responders at 3 mg/kg (S. aureus Smith): 33%
responders at 30 mg/kg (S. aureus Smith): 83%

CC(C)C[C@@H]1CNc2c(O)c3c(c(F)c2CN1)C[C@H]1C[C@H]2[C@H](N(C)C)C(O)=C(C(N)=O)C(=O)[C@@]2(O)C(O)=C1C3=O [Compound 408]
responders at 3 mg/kg (S. aureus Smith): 100%
responders at 30 mg/kg (S. aureus Smith): 0%

CC[C@H](C)N1Cc2c(O)c3c(c(F)c2C1)C[C@H]1C[C@H]2[C@H](N(C)C)C(O)=C(C(N)=O)C(=O)[C@@]2(O)C(O)=C1C3=O [Compound 123]
responders at 3 mg/kg (S. aureus Smith): 33%
responders at 30 mg/kg (S. aureus Smith): 67%

C[C@H]1COc2c(N3CCN(C)CC3)c(F)cc3c(=O)c(C(=O)O)cn1c23 [Levofloxacin, levofloxacin]
MIC50 ([1]; Acinetobacter lwoffii, n=29, read-out: MIC50): ≤ 0.25 µg/mL
MIC90 ([1]; Acinetobacter lwoffii, n=29, read-out: MIC90): ≤ 0.25 µg/mL
MIC50 ([1]; Enterobacter cloacae, n=29): 1 µg/mL (≈ 2.77 µM)
MIC90 ([1]; Enterobacter cloacae, n=29): > 4 µg/mL
MIC50 ([1]; Escherichia coli, n=40): ≤ 0.25 µg/mL
MIC90 ([1]; Escherichia coli, n=40): > 4 µg/mL
MIC50 ([1]; Kiebsielia oxytoca, n=30): ≤ 0.25 µg/mL
MIC90 ([1]; Kiebsielia oxytoca, n=30): 4 µg/mL (≈ 11.1 µM)
MIC50 [1, 5]: ≤ 0.25 µg/mL
MIC90 [1, 5]: ≤ 0.25 µg/mL
MIC50 [1, 6]: 1 µg/mL (≈ 2.77 µM)
MIC90 [1, 6]: > 4 µg/mL
MIC50 ([1]; Morganella morganii, n=30): ≤ 0.25 µg/mL
MIC90 ([1]; Morganella morganii, n=30): 4 µg/mL (≈ 11.1 µM)
MIC50 ([1]; Proteus vulgaris, n=29): ≤ 0.25 µg/mL
MIC90 ([1]; Proteus vulgaris, n=29): 1 µg/mL (≈ 2.77 µM)
MIC50 ([1]; Salmonella species, n=30, read-out: MIC50): ≤ 0.25 µg/mL
MIC90 ([1]; Salmonella species, n=30, read-out: MIC90): ≤ 0.25 µg/mL
MIC50 ([1]; Serratia marcescens, n=30): ≤ 0.25 µg/mL
MIC90 ([1]; Serratia marcescens, n=30): 2 µg/mL (≈ 5.53 µM)
MIC90 ([1]; Shigella species, n=30, read-out: MIC90): 0.5 µg/mL (≈ 1.38 µM)
MIC50 [1, 2]: 0.25 µg/mL (≈ 0.692 µM)
MIC90 [1, 3]: > 2 µg/mL
MIC50 ([1]; Staphylococcus aureus, Staphylococcus aureus MRSA (includes MRSA PVL+ group), n=105, read-out: MIC50): > 2 µg/mL
MIC90 ([1]; Staphylococcus aureus, Staphylococcus aureus MRSA (includes MRSA PVL+ group), n=105, read-out: MIC90): > 2 µg/mL
MIC50 [1, 7]: 0.5 µg/mL (≈ 1.38 µM)
MIC90 [1, 7]: > 4 µg/mL
MIC50 ([1]; Streptococcus anginosus, n=20): 0.5 µg/mL (≈ 1.38 µM)
MIC90 ([1]; Streptococcus anginosus, n=20): 0.5 µg/mL (≈ 1.38 µM)
MIC50 [1, 4]: 1 µg/mL (≈ 2.77 µM)
MIC90 [1, 4]: 2 µg/mL (≈ 5.53 µM)
MIC50 ([1]; Streptococcus mitis, n=29): 1 µg/mL (≈ 2.77 µM)
MIC90 ([1]; Streptococcus mitis, n=29): 2 µg/mL (≈ 5.53 µM)
MIC50 ([1]; Streptococcus sanguis, n=18, read-out: MIC50): 0.5 µg/mL (≈ 1.38 µM)
MIC90 ([1]; Streptococcus sanguis, n=18, read-out: MIC90): 2 µg/mL (≈ 5.53 µM)

CC[C@H](C)N1Cc2c(O)c3c(c(Cl)c2C1)C[C@H]1C[C@H]2[C@H](N(C)C)C(O)=C(C(N)=O)C(=O)[C@@]2(O)C(O)=C1C3=O [Compound 110]
responders at 3 mg/kg (S. aureus Smith): 33%
responders at 30 mg/kg (S. aureus Smith): 50%
